Series [1] relates to MEFs. Put plainly: Mitochondrial membrane potential (TMRE, flow cytometry). Format: cell-based, mouse. As to the method:
Mitochondrial Membrane Potential. 1×10^5 cells were treated with Act-D and QVD for 1, 2, or 3 days. QVD (and Act-D+QVD) was replaced each day. At the end of the experiment, media were collected and the cells were washed with PBS. The PBS was collected and combined with the media. Cells were trypsinized and resuspended in medium and PBS, as described above. The cells were spun for 5 min at 200 g and resuspended in fresh media containing TMRE (50 nM) and allowed to incubate at 37° C. for 30 minutes. Fluorescence was quantified in FL-2 using a FACscan and analyzed with Cellquest software (Waterhouse et al., 2001).

Another series relates to WI-38 fibroblasts. Nature of the series: Cell detachment scoring of Act-D-treated cultures with caspase inhibitors. The conditions noted are these: for attachment of Act-D treated cells with caspase inhibitor: WI-38 cells. The series is classed as cell-based, human. The procedure: (§1) Subconfluent cultures were treated with the caspase inhibitors zVAD or QVD together with actinomycin D (Act-D; 40 nM), which is known to induce cell death […]. Initially, the cultures were simply scored for cell detachment, a late event in the apoptotic response of adherent cells.

The subject of another series is HMECs. The series is described as above. Format: cell-based, human. Particulars: for detachment of cells in the presence of Act-D and caspase inhibitor: Act-D treated. The procedure: as §1
Series [2] relates to MEFs. Nature of the series: Sub-G1 peak determination (flow cytometry). Format: cell-based, mouse. As to the method: Cell Death Assays: Sub-G1 peak determination. 1×10^5 cells were treated with Act-D (40 nM in DMSO), DMSO (0.2%), QVD (40 μM), or QVD plus Act-D for 1, 2, or 3 days. QVD (and Act-D+QVD) was replaced each day. At the end of the experiment, media were collected and washed once with PBS. The PBS was also collected and then the cells were trypisized. Trypsinization was stopped by addition of the previously collected and pooled media and PBS. Cells were then collected by centrifugation at 200 g for 10 minutes, resuspended in 70% ethanol and stored at −20° C. overnight. The fixed cells were resuspended in 300 μl of PBS containing 10 μg/ml PI and 0.5 μg/ml RNase A and incubated at room temperature for 1 hour. Cells were quantified by flow cytometery using a FACscan (Becton Dickinson) in FL-3 and analyzed using Cellquest software (BD) (Cotter and Martin, 1996).

For the next series, the system named is HeLa cells. Nature of the series: Cytochrome c immunocytochemistry of HeLa cells treated with ActD and ZVAD-fmk. The conditions noted are these: 24 h after treatment. Format: cell-based. The procedure: FIGS. 6A and 61B are photographs of the cells after the apoptosis assay. FIG. 6A. Immunocytochemistry. HeLa cells were treated with vehicle (DMSO Control), actinomycin D (ActD) to induce apoptosis, or ActD plus the caspase inhibitor ZVAD-fmk. 24 h later, cells were immunostained for cytochrome c (green) and counterstained with DAPI (blue) to identify nuclei. In control cells, cytochrome c is evident as punctate mitochondrial staining. […] FIG. 6B. Quantification. The % cells with diffuse cytochrome c staining (x axis) were scored 24 h after treatment with vehicle (Contr), ActD or ActD plus ZVAD (ZV). Cytochrome c staining in the presence of ZVAD allows apoptotic cells to accumulate over 24 h.

Series [3] has as its system MEFs. Put plainly: PI exclusion assay (flow cytometry). Format: cell-based, mouse. As to the method: PI exclusion assay. 1×10^5 cells were treated with Act-D (40 nM in DMSO), DMSO (0.2%), QVD (40 μM), or QVD plus Act-D for 1, 2, or 3 days. QVD (and Act-D+QVD) was replaced each day. At the end of the experiment, PI was added to a final concentration of 10 μg/ml. Following 10 min in the incubator, media were collected and the cells were washed with PBS. The PBS was also collected and combined with the media. The remaining cells were trypsinized and then combined with the mix of PBS and media. The cells were centrifuged at 200 g for 10 minutes and resuspended in 300 μl of PBS. The cells were then quantified and analyzed as above (Cotter and Martin, 1996).
(Flow cytometry measures light scatter and fluorescence of single cells or particles in a stream.)

Series [4] deals with MEFs. Put plainly: Cell detachment scoring of Act-D-treated cultures with caspase inhibitors. The series is classed as cell-based, mouse. Particulars: Act-D 40 nM, 3 days. The procedure: MEFs were given Act-D (40 nM in DMSO) or DMSO and either no inhibitor, zVAD (100 μM) or QVD (40 μM). After 3 days, the cells were photographed at 10× magnification.
as §1

Series [5] has as its system MEFs. Nature of the series: Caspase-independent cytochrome c release (CICR) assay, diffuse cytochrome c immunostaining. Particulars: for Diffuse cyt c (%): Act-D 40 nM, QVD 40 μM. Format: cell-based, mouse. The procedure:
Caspase-independent cytochrome c release (CICR) assay. 3×10^4 cells were plated in each well of a Lab-Tek 4 well chamber slide (Nalge Nunc International, Naperville, Ill.) and treated with Act-D (40 nM), DMSO (0.2%), QVD (40 μM), or QVD plus Act-D for 1, 2, or 3 days. QVD (and Act-D+QVD) was replaced each day. At the end of the experiment, cells were washed twice with PBS and fixed with 4% formaldahyde in PBS for 5 minutes at room temperature. The cells were then washed twice with PBS and then incubated in blocking buffer (3% BSA and 0.1% Triton-X in PBS) for 30 min at room temperature. Cells were incubated for 1 hour at room temperature with anti-cytochrome c (Pharmingen, San Jose, Calif.) diluted 1:800 and 15 μg/ml Hoechst 33342 in blocking buffer. Cells were washed 5 times with PBS, and incubated with anti-mouse secondary antibody for 1 hour at room temperature. The cells were washed 5 times with PBS and then mounted in Prolong (Molecular Probes, Eugene, Oreg.).
Cells were scored as apoptotic if cytochrome c appeared diffuse and met the following criteria: 1) presence of diffuse cytochrome c in both the cytoplasm and nucleus; 2) lack of reticulated or punctate staining in the cytoplasm. Typically images were acquired using a 20× objective, and 500-800 cells were scored. For the exact number of cells counted in FIGS. 3A, 4, and 5, see Table 1 below. Nuclei were counted using images of uniformly illuminated Hoechst staining imported into Image J (URL: <http://rsb.info.nih.gov/ij/>).

The subject of the next series is HCA-2 fibroblasts. Put plainly: Growth curves in media with QVD. Format: cell-based. Particulars: 0.1% DMSO + 40 μM QVD. As to the method:
(§2) HCA-2 fibroblasts and HMEC were grown in normal growth media (DMEM, MEGM) or normal growth media supplemented with 0.1% DMSO (DMSO) or 0.1% DMSO+40 μM QVD (QVD). HCA-2 growth curves were averaged triplicates (HCA-2) or duplicates (HMEC) and error bars (HCA-2) are SD.

For series [6] the following is noted: cited from earlier work.
In the next series the test system is HMEC. Nature of the series: Growth curves in media with QVD. Format: cell-based, human. Particulars: 0.1% DMSO + 40 μM QVD. As to the method: as §2
[7] abbreviates: MEFs treated with Act-D for one day.

Results on three compounds are retold here after patent publication US20060263809A1, “Method for sensitive measure of low level apoptosis in cells” (The Rgents of The University of California, priority 2005, published 2006).

Entries after “also recorded” stand apart in the source; their conditions may differ. *1 amine or outer side, *2 acyl side, *3 side chain or, on linkers, in order; H or OH if unused. Where a SMILES comes first, the peptide text is derived from it. Bridges are numbered along the chain shown (N, C = ends). Roman numbers before positions name the chains, in order. [ ]: non-standard residue; d: D form. The star is where a group is joined. Actinocin(9to1) = Cc1c2oc3c(C)ccc(C(=O)[*:1])c3nc-2c(C(=O)[*:2])c(N)c1=O; NMeV = CN[C@H](C(=O)O)C(C)C; Cbz = O=C(OCc1ccccc1)*; Sar = CNCC(=O)O; CH2F = FC*

Turning to `Cc1c2oc3c(C)ccc(C(=O)N[C@@H]4C(=O)N[C@H](C(C)C)C(=O)N5CCC[C@H]5C(=O)N(C)CC(=O)N(C)[C@@H](C(C)C)C(=O)O[C@@H]4C)c3nc-2c(C(=O)N[C@@H]2C(=O)N[C@H](C(C)C)C(=O)N3CCC[C@H]3C(=O)N(C)CC(=O)N(C)[C@@H](C(C)C)C(=O)O[C@@H]2C)c(N)c1=O` [Act-D, actinomycin D] (I: T[dV]P[Sar][NMeV] / II: T[dV]P[Sar][NMeV]; ester I:1-I:C, II:1-II:C; linker I:N-II:N via Actinocin(9to1)), in the series on MEFs [1] (setting [7]), the “apoptosis detected by loss of ΔΨm” value is “little or no apoptosis”. In addition, in the series with MEFs [1] (MEFs, Act-D), the “time after addition at which manifestations of apoptosis were apparent (reduction in ΔΨm)” value is 1 to 2 days. Further, the “apoptotic morphology and detachment” value with WI-38 fibroblasts (WI-38, Act-D 40 nM, 3 days) is “adopt characteristic apoptotic morphology and detach from the culture dish”; in the series with HMECs (Act-D 40 nM, 3 days), “adopt characteristic apoptotic morphology and detach from the culture dish”; with MEFs [4], “adopt characteristic apoptotic morphology and detach from the culture dish”. For the same compound, the “apoptosis detected by subG1 peak determination” value in the series with MEFs [2] (setting [7]) is reported as “little or no apoptosis”. The “time after addition at which manifestations of apoptosis were apparent (sub-G1 DNA peak)” value in the series on MEFs [2] (MEFs, Act-D) was in the range of 1 to 2 days. Besides, in the series on HeLa cells, the “cells remaining on dish and cytochrome c staining” value is recorded as “fewer cells are present on the culture dish”. In addition, the “cells died by PI exclusion assay” value in the series on MEFs [3] (MEFs treated with Act-D, after 3 days) is given as 74%. Besides, the “time after addition at which manifestations of apoptosis were apparent (propidium iodide exclusion)” value with MEFs [3] (MEFs, Act-D) lay in the range of 1 to 2 days. Further, the “cells apoptotic by CICR assay” value in the series on MEFs [5] (MEFs treated with Act-D for one day, CICR assay (QVD present)) is 13%. In addition, in the series with MEFs [5] (MEFs treated with Act-D, after 3 days, CICR assay (QVD present)), the “cells dead or dying by CICR assay” value came out at 96%. For the same compound, in the series on MEFs [5] (MEFs, CICR assay), the “time at which Act-D begins killing cells by CICR assay” value is not above 24 h. For the same compound, the “Diffuse cyt c (%)” value with MEFs [5] (MEFs, Day 1) was 0.8%; with MEFs [5] (MEFs, Day 2), 13.4%.
On to `CC(C)[C@H](NC(=O)c1ccc2ccccc2n1)C(=O)N[C@@H](CC(=O)O)C(=O)COc1c(F)cccc1F` [QVD, Quinoline-Val-Asp-Ch2-O-Ph], for which the “effect on Act-D-induced reduction in ΔΨm” value in the series with MEFs [1] (MEFs, Act-D, 40 μM QVD) is reported as “substantially or completely reduced”. Also, the “effect on cell growth” value in the series with HCA-2 fibroblasts and with HMEC was “does not inhibit growth” each time. For the same compound, the “attachment of Act-D treated cells with caspase inhibitor” value in the series on WI-38 fibroblasts is on record as “remained equally well attached”. In the series with HMECs, the “detachment of cells in the presence of Act-D and caspase inhibitor” value is “a small fraction detached”. Also, the “effect on Act-D-induced sub-G1 DNA peak” value in the series on MEFs [2] (MEFs, Act-D, 40 μM QVD) is recorded as “substantially or completely reduced”. In addition, the “effect on Act-D-induced loss of propidium iodide exclusion” value with MEFs [3] (MEFs, Act-D, 40 μM QVD) is recorded as “substantially or completely reduced”. In addition, the “dose with no toxicity / administered safely” value in series [6] (animal, data sheet of distributor MP Biomedicals) is given as 1 g/kg of body weight. For the same compound, in [6] (in vivo, Yang et al. 2004), the “dose reported as safely used” value was 20 mg/kg of body weight. The “prevention of Act-D-induced cell detachment” value in the series with MEFs [4] (QVD 40 μM) was “preserves adhesion; also recorded: prevented most of the cell detachment”. Also, the “Diffuse cyt c (%)” value is recorded as 2.0% with MEFs [5] (MEFs, Day 1); 2.3% with MEFs [5] (MEFs, Day 2); 3.2% in the series on MEFs [5] (MEFs, Day 3).
On to `COC(=O)C[C@H](NC(=O)[C@H](C)NC(=O)[C@@H](NC(=O)OCc1ccccc1)C(C)C)C(=O)CF` [zVAD, benzyloxycarbonyl-Val-Ala-Asp-fluoromethylketone] (Cbz-Val-Ala-Asp(OMe)-CH2F), for which the “attachment of Act-D treated cells with caspase inhibitor” value in the series with WI-38 fibroblasts is listed as “remained equally well attached”. The “detachment of cells in the presence of Act-D and caspase inhibitor” value with HMECs is reported as “a larger fraction detached”. In addition, the “prevention of Act-D-induced cell detachment” value in the series on MEFs [4] (zVAD 100 μM) was “failed to prevent detachment”.
